In patent publication US10287251B2, “Pyrazole derivative or pharmaceutically acceptable salt thereof” (KISSEI PHARMACEUTICAL CO., LTD., priority 2015, dated 2019):

These molecules were tested against T1, TRPM8 (Rattus norvegicus, UniProt Q8R455) (assay: Confirmation test of inhibitory effects on icilin-induced wet-dog shakes). Conditions: female SD rats, oral dose 0.3 mg/kg, icilin 1 mg/kg i.p. 1 hour after dosing, shakes counted for 5 minutes.
T1 construct: from tissue; host or cells: whole animal, female SD rats (in vivo)
Format: in vivo
Description: Further, TRPM8 inhibitory activity can be evaluated by the efficacy inhibiting the wet-dog shake action which is induced by the administration of Icilin, TRPM8 agonist. Furthermore, an effect on overactive bladder (OAB) can be evaluated by an elongation of micturition interval against overactive bladder induced by acetic acid in accordance with a similar method described in J. Urol., 2001, 166, 1142.
Confirmation Test of Inhibitory Effects on Icilin-induced Wet-dog Shakes
Test compounds were dissolved in dimethylacetamide (wako), and 0.5% methylcellulose solution (wako) was added to make the solution or suspension containing 5% of dimethylacetatnide. At a dose of 0.3 to 10 mg/kg/5mL of test compounds were orally administered to female SD rats. After 1 hour, wet-dog shakes were induced by the intraperitoneal injection of icilin (1 mg/kg) which was dissolved in polyethylene glycol 400 (wako). From 5 minutes after the administration of icilin, wet-dog shakes were counted for 5 minutes. For control example, vehicle (a mixture of dimethylacetamide (wako): 0.5% methylcellulose (wako)=5:95) was administrated similarly, and the number of wet-dog shakes was counted in the same manner. A percent inhibition of wet-dog shakes by test compound was calculated from the following formula: [1-(test compound wet-dog shake count/vehicle wet-dog shake count)]×100.

T1 sequence (Q8R455 whole entry): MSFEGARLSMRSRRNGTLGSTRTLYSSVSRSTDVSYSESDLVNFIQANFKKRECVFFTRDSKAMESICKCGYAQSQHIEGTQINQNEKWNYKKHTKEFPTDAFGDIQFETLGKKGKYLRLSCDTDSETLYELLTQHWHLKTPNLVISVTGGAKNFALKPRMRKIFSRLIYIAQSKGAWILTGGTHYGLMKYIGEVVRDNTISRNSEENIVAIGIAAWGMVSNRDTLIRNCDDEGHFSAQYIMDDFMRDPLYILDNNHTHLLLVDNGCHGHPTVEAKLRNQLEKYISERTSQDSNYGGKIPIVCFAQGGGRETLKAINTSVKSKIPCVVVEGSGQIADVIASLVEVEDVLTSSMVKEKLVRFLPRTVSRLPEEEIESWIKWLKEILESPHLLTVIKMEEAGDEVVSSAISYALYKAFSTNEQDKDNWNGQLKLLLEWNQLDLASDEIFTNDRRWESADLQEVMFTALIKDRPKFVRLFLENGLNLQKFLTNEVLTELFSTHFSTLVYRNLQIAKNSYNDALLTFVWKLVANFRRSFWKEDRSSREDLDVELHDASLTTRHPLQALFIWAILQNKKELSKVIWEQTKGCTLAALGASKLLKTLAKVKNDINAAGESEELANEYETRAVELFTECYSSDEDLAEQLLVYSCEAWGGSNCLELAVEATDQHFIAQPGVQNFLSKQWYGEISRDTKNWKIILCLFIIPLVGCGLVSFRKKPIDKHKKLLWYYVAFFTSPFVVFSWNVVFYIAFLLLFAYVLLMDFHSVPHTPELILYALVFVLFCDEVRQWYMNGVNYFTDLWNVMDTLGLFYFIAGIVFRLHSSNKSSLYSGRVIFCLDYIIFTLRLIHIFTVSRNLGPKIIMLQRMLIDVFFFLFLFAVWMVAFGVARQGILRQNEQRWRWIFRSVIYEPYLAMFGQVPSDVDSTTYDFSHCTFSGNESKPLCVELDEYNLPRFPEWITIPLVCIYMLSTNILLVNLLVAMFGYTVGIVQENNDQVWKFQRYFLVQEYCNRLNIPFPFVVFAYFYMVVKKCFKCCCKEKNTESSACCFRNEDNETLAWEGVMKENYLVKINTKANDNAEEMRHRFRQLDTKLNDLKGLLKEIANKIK

First: CO[C@H](CO)[C@@H](Cc1ncccc1F)NC(=O)c1cccc(F)c1-c1cc(-c2ccc(F)cc2)[nH]n1 [Example 27-20]
Second: O=C(N[C@H](Cc1ncccc1F)[C@H](F)CO)c1cccc(F)c1-c1cc(-c2ccc(F)cc2)[nH]n1 [Example 43-41]
The “% inhibition of Wet-Dog Shake” value of the first is higher: 56% for the first, 54% for the second.

Compared with `CO[C@H](CO)[C@@H](Cn1nccn1)NC(=O)c1cccc(F)c1-c1n[nH]c(-c2ccc(F)cc2)c1F` [Example 27-30], `CO[C@H](CO)[C@@H](Cc1ccccn1)NC(=O)c1ccccc1-c1n[nH]c(-c2ccc(F)cc2)c1F` [Example 43-5] is higher in “% inhibition of Wet-Dog Shake” value: 62% for the first, 98% for the second.

With `CO[C@H](CO)[C@@H](Cc1ccccn1)NC(=O)c1ccccc1-c1cc(-c2ccc(F)cc2)[nH]n1` [Example 43-13] the “% inhibition of Wet-Dog Shake” value was 90%.

Same assay, conditions: female SD rats, oral dose 1 mg/kg, icilin 1 mg/kg i.p. 1 hour after dosing, shakes counted for 5 minutes

Compared with `CO[C@H](CO)[C@@H](Cc1cscn1)NC(=O)c1cccc(F)c1-c1cc(-c2ccc(F)cc2)[nH]n1` [Example 27-21], `CO[C@H](CO)[C@@H](Cn1nccn1)NC(=O)c1cccc(F)c1-c1cc(-c2ccc(F)cc2)[nH]n1` [Example 27-22] is higher in “% inhibition of Wet-Dog Shake” value: 32% for the first, 100% for the second.

Going from `O=C(N[C@@H](CCO)Cc1ccccn1)c1cccc(F)c1-c1n[nH]c(-c2ccc(F)cc2)c1F` [Example 28-1, 3-Fluoro-2-[4-fluoro-5-(4-fluorophenyl)-1H-pyrazol-3-yl]-N-[(2R)-4-hydroxy-1-(pyridin-2-yl)butan-2-yl]benzamide] to `CO[C@H](CO)[C@@H](Cc1ccccn1)NC(=O)c1cccc(F)c1-c1n[nH]c(-c2ccc(F)cc2)c1F` [Example 43-14], the “% inhibition of Wet-Dog Shake” value rises from 62% to 100%.

Compared with `CC(C)(O)[C@@H](Cc1ccccn1)NC(=O)c1cccc(F)c1-c1n[nH]c(-c2ccc(F)cc2)c1F` [Example 33-2], `O=C(N[C@H](Cc1ccccn1)C(F)(F)CO)c1cccc(F)c1-c1cc(-c2ccc(F)cc2)[nH]n1` [Example 50-5] is higher in “% inhibition of Wet-Dog Shake” value: 88% for the first, 100% for the second.

Going from `CCO[C@H](CO)[C@@H](Cc1ccccn1)NC(=O)c1cccc(F)c1-c1cc(-c2ccc(F)cc2)[nH]n1` [Example 43-15] to `O=C(N[C@H](Cc1ccccn1)[C@@H](F)CO)c1cccc(F)c1-c1cc(-c2ccc(F)cc2)[nH]n1` [Example 43-23], the “% inhibition of Wet-Dog Shake” value rises from 73% to 100%.

Compared with `CO[C@H](CO)[C@@H](Cc1ccccn1)NC(=O)c1ccccc1-c1n[nH]c(-c2ccc(Cl)cc2)c1F` [Example 43-18], `O=C(N[C@H](Cc1ccccn1)[C@H](F)CO)c1cccc(F)c1-c1cc(-c2ccc(F)cc2)[nH]n1` [Example 43-24] is higher in “% inhibition of Wet-Dog Shake” value: 85% for the first, 100% for the second.

First: O=C(N[C@H](Cc1ncccn1)[C@H](F)CO)c1cccc(F)c1-c1cc(-c2ccc(F)cc2)[nH]n1 [Example 43-29]
Second: O=C(N[C@H](Cn1cccn1)[C@H](F)CO)c1cccc(F)c1-c1n[nH]c(-c2ccc(F)cc2)c1F [Example 43-39]
The “% inhibition of Wet-Dog Shake” value of the first is lower: 79% for the first, 81% for the second.

Same assay, conditions: female SD rats, oral dose 3 mg/kg, icilin 1 mg/kg i.p. 1 hour after dosing, shakes counted for 5 minutes

First: CO[C@@H](CO)[C@@H](Cn1cccn1)NC(=O)c1cccc(F)c1-c1n[nH]c(-c2ccc(F)cc2)c1F [Example 27-24]
Second: COC(c1ccccn1)[C@H](CO)NC(=O)c1cccc(F)c1-c1n[nH]c(-c2ccc(F)cc2)c1F (stereo partly drawn) [Example 43-16]
The “% inhibition of Wet-Dog Shake” value of the first is higher: 99% for the first, 97% for the second.

Compared with `CO[C@H](CO)[C@@H](Cn1cc(Cl)cn1)NC(=O)c1cccc(F)c1-c1cc(-c2ccc(F)cc2)[nH]n1` [Example 27-29], `CO[C@@H](CO)[C@@H](Cc1ccccn1)NC(=O)c1cccc(F)c1-c1cc(-c2ccc(F)cc2)[nH]n1` [Example 43-2] is higher in “% inhibition of Wet-Dog Shake” value: 47% for the first, 100% for the second.

First: O=C(N[C@H](Cc1ncccn1)[C@@H](O)CO)c1cccc(F)c1-c1cc(-c2ccc(F)cc2)[nH]n1 [Example 31-1, N-[(2R,3R)-3,4-Dihydroxy-1-(pyrimidin-2-yl)butan-2-yl]-3-fluoro-2-[5-(4-fluorophenyl)-1H-pyrazol-3-yl]benzamide]
Second: O=C(N[C@H](Cc1ncccn1)[C@@H](O)CF)c1cccc(F)c1-c1cc(-c2ccc(F)cc2)[nH]n1 [Example 50-2]
The “% inhibition of Wet-Dog Shake” value of the first is lower: 36% for the first, 89% for the second.

Compared with `CC(C)(O)[C@@H](Cc1ccccn1)NC(=O)c1cccc(F)c1-c1cc(-c2ccc(F)cc2)[nH]n1` [Example 33-1, 3-Fluoro-2-[-5-(4-fluorophenyl)-1H-pyrazol-3-yl]-N-[(2R)-3-hydroxy-3-methyl-1-(pyridin-2-yl)butan-2-yl]benzamide], `CC(C)(O)[C@@H](Cc1ccccn1)NC(=O)c1cccc(Cl)c1-c1cc(-c2ccc(F)cc2)[nH]n1` [Example 33-3] is lower in “% inhibition of Wet-Dog Shake” value: 100% for the first, 32% for the second.

Going from `CC(C)(O)[C@@H](Cc1ccccn1)NC(=O)c1cccc(F)c1-c1cc(-c2ccc(Cl)cc2)[nH]n1` [Example 34-1HP, 2-[-5-(4-Chlorophenyl)-1H-pyrazol-3-yl]-3-fluoro-N-[(2R)-3-hydroxy-3-methyl-1-(pyridin-2-yl)butan-2-yl]benzamide] to `CC(CO)(CO)[C@@H](Cc1ccccn1)NC(=O)c1cccc(F)c1-c1cc(-c2ccc(Cl)cc2)[nH]n1` [Example 35-1, 2-[5-(4-Chlorophenyl)-1H-pyrazol-3-yl]-3-fluoro-N-[(2R)-4-hydroxy-3-(hydroxymethyl)-3-methyl-1-(pyridin-2-yl)butan-2-yl]benzamide], the “% inhibition of Wet-Dog Shake” value falls from 92% to 42%.

First: O=C(N[C@H](Cc1ccccn1)C(CO)CO)c1cccc(F)c1-c1cc(-c2ccc(F)cc2)[nH]n1 [Example 35-3]
Second: O=C(N[C@@H](Cc1ccccn1)[C@H](F)CO)c1cccc(F)c1-c1cc(-c2ccc(F)cc2)[nH]n1 [Example 43-25]
The “% inhibition of Wet-Dog Shake” value of the first is lower: 69% for the first, 100% for the second.

First: O=C(N[C@@H](CCO)Cc1ccccn1)c1cccc(Cl)c1-c1cc(-c2ccc(F)cc2)[nH]n1 [Example 36-1, 3-Chloro-2-[5-(4-fluorophenyl)-1H-pyrazol-3-yl]-N-[(2R)-4-hydroxy-1-(pyridin-2-yl)butan-2-yl]benzamide]
Second: CO[C@H](CO)[C@@H](Cc1ccccn1)NC(=O)c1cccc(Cl)c1-c1cc(-c2ccc(F)cc2)[nH]n1 [Example 43-4]
The “% inhibition of Wet-Dog Shake” value of the first is lower: 39% for the first, 77% for the second.

First: C[C@@](CO)(Cc1ccccn1)NC(=O)c1cccc(F)c1-c1cc(-c2ccc(F)cc2)[nH]n1 [Example 36-2]
Second: NC(=O)[C@@H](Cc1ccccn1)NC(=O)c1cccc(F)c1-c1cc(-c2ccc(F)cc2)[nH]n1 [Example 37-1, (2R)-2-{3-Fluoro-2-[-5-(4-fluorophenyl)-1H-pyrazol-3-yl]benzoylamino}-3-(pyridin-2-yl)propanamide]
The “% inhibition of Wet-Dog Shake” value of the first is higher: 72% for the first, 38% for the second.

First: O=C(N[C@@H](CO)Cc1ncccc1Cl)c1cccc(F)c1-c1cc(-c2ccc(F)cc2)[nH]n1 [Example 39-2]
Second: O=C(N[C@H](Cc1ncccn1)C(F)(F)CO)c1cccc(F)c1-c1cc(-c2ccc(F)cc2)[nH]n1 [Example 50-4]
The “% inhibition of Wet-Dog Shake” value of the first is lower: 50% for the first, 100% for the second.

First: COC(c1ccccn1)[C@H](CO)NC(=O)c1cccc(F)c1-c1cc(-c2ccc(F)cc2)[nH]n1 (stereo partly drawn) [Example 43-6]
Second: COC(c1ccccn1)[C@H](CCO)NC(=O)c1cccc(F)c1-c1cc(-c2ccc(F)cc2)[nH]n1 (stereo partly drawn) [Example 43-9]
The “% inhibition of Wet-Dog Shake” value of the first is lower: 49% for the first, 89% for the second.

Going from `COC(c1ccccn1)[C@H](CO)NC(=O)c1cccc(F)c1-c1cc(-c2ccc(F)cc2)[nH]n1` (stereo partly drawn) [Example 43-11] to `CCOC(c1ccccn1)[C@H](CO)NC(=O)c1cccc(F)c1-c1cc(-c2ccc(F)cc2)[nH]n1` (stereo partly drawn) [Example 43-22], the “% inhibition of Wet-Dog Shake” value rises from 88% to 98%.

First: COC(c1ccccn1)[C@H](CO)NC(=O)c1cccc(Cl)c1-c1cc(-c2ccc(F)cc2)[nH]n1 (stereo partly drawn) [Example 43-12]
Second: COC(c1ccccn1)[C@H](CO)NC(=O)c1ccccc1-c1n[nH]c(-c2ccc(F)cc2)c1F (stereo partly drawn) [Example 43-17]
The “% inhibition of Wet-Dog Shake” value of the first is higher: 92% for the first, 78% for the second.

First: CO[C@H](CO)[C@@H](Cc1ccccn1)NC(=O)c1cccc(F)c1-c1cc(-c2ccc(F)cc2F)[nH]n1 [Example 43-34]
Second: CO[C@H](CO)[C@@H](Cc1ccccn1)NC(=O)c1cccc(F)c1-c1n[nH]c(-c2ccc(F)cc2)c1Cl [Example 43-36]
The “% inhibition of Wet-Dog Shake” value of the first is higher: 100% for the first, 31% for the second.

Compared with `O=C(N[C@H](Cn1cccn1)[C@H](F)CO)c1cccc(F)c1-c1cc(-c2ccc(Cl)cc2)[nH]n1` [Example 43-44], `O=C(N[C@H](Cn1cccn1)[C@H](F)CO)c1cccc(Cl)c1-c1cc(-c2ccc(F)cc2)[nH]n1` [Example 43-45] is lower in “% inhibition of Wet-Dog Shake” value: 69% for the first, 40% for the second.

Going from `O=C(N[C@H](Cn1cccn1)[C@H](F)CO)c1cccc(F)c1-c1cc(-c2ccc(F)cc2F)[nH]n1` [Example 43-46] to `O=C1N[C@@H]([C@@H](Cc2ccccn2)NC(=O)c2cccc(F)c2-c2cc(-c3ccc(F)cc3)[nH]n2)CO1` [Example 47-1, 3-Fluoro-2-[5-(4-fluorophenyl)-1H-pyrazol-3-yl]-N-[(1R)-1-((4S)-2-oxo-1,3-oxazolidin-4-yl)-2-(pyridin-2-yl)ethyl]benzamide], the “% inhibition of Wet-Dog Shake” value falls from 70% to 48%.

In the case of `O=C1OC[C@H]([C@@H](Cc2ccccn2)NC(=O)c2cccc(F)c2-c2cc(-c3ccc(F)cc3)[nH]n2)O1` [Example 47-2], the “% inhibition of Wet-Dog Shake” value is reported as 78%.
